Test results from BigSolDB 2.1.

Compound: Cc1[nH]c(=O)c(C#N)cc1-c1ccncc1
- solubility (mole fraction) (in DMF, 278.15 K): 7.95e-05
- solubility (mole fraction) (in DMF, 283.15 K): 9.2e-05
- solubility (mole fraction) (in DMF, 288.15 K): 0.000109
- solubility (mole fraction) (in DMF, 293.15 K): 0.000129
- solubility (mole fraction) (in DMF, 298.15 K): 0.000149
- solubility (mole fraction) (in DMF, 303.15 K): 0.000173
- solubility (mole fraction) (in DMF, 308.15 K): 0.000199
- solubility (mole fraction) (in DMF, 313.15 K): 0.000225
- solubility (mole fraction) (in DMF, 318.15 K): 0.000251
- solubility (mole fraction) (in DMF, 323.15 K): 0.000285
- solubility (mole fraction) (in ethanol, 278.15 K): 9.24e-06
- solubility (mole fraction) (in ethanol, 283.15 K): 1.13e-05
- solubility (mole fraction) (in ethanol, 288.15 K): 1.35e-05
- solubility (mole fraction) (in ethanol, 293.15 K): 1.58e-05
- solubility (mole fraction) (in ethanol, 298.15 K): 1.84e-05
- solubility (mole fraction) (in ethanol, 303.15 K): 2.13e-05
- solubility (mole fraction) (in ethanol, 308.15 K): 2.43e-05
- solubility (mole fraction) (in ethanol, 313.15 K): 2.74e-05
- solubility (mole fraction) (in ethanol, 318.15 K): 3.1e-05
- solubility (mole fraction) (in ethanol, 323.15 K): 3.5e-05
- solubility (mole fraction) (in ethylene glycol, 278.15 K): 1.72e-05
- solubility (mole fraction) (in ethylene glycol, 283.15 K): 2.09e-05
- solubility (mole fraction) (in ethylene glycol, 288.15 K): 2.46e-05
- solubility (mole fraction) (in ethylene glycol, 293.15 K): 2.89e-05
- solubility (mole fraction) (in ethylene glycol, 298.15 K): 3.37e-05
- solubility (mole fraction) (in ethylene glycol, 303.15 K): 3.89e-05
- solubility (mole fraction) (in ethylene glycol, 308.15 K): 4.4e-05
- solubility (mole fraction) (in ethylene glycol, 313.15 K): 5.03e-05
- solubility (mole fraction) (in ethylene glycol, 318.15 K): 5.66e-05
- solubility (mole fraction) (in ethylene glycol, 323.15 K): 6.44e-05
- solubility (mole fraction) (in isopropanol, 278.15 K): 2.44e-05
- solubility (mole fraction) (in isopropanol, 283.15 K): 2.89e-05
- solubility (mole fraction) (in isopropanol, 288.15 K): 3.43e-05
- solubility (mole fraction) (in isopropanol, 293.15 K): 4.03e-05
- solubility (mole fraction) (in isopropanol, 298.15 K): 4.73e-05
- solubility (mole fraction) (in isopropanol, 303.15 K): 5.4e-05
- solubility (mole fraction) (in isopropanol, 308.15 K): 6.16e-05
- solubility (mole fraction) (in isopropanol, 313.15 K): 7.07e-05
- solubility (mole fraction) (in isopropanol, 318.15 K): 7.92e-05
- solubility (mole fraction) (in isopropanol, 323.15 K): 9.02e-05
- solubility (mole fraction) (in water, 278.15 K): 4.99e-07
- solubility (mole fraction) (in water, 283.15 K): 5.98e-07
- solubility (mole fraction) (in water, 288.15 K): 7.1e-07
- solubility (mole fraction) (in water, 293.15 K): 8.34e-07
- solubility (mole fraction) (in water, 298.15 K): 9.77e-07
- solubility (mole fraction) (in water, 303.15 K): 1.12e-06
- solubility (mole fraction) (in water, 308.15 K): 1.27e-06
- solubility (mole fraction) (in water, 313.15 K): 1.44e-06
- solubility (mole fraction) (in water, 318.15 K): 1.64e-06
- solubility (mole fraction) (in water, 323.15 K): 1.85e-06
